Active and inactive are the calls of the source.
Columns and labels:
[1] = Luminescence Cell-Based Dose Response HTS to Identify Activators of Luciferase Translation or Activity in H4 […] Cells. [Related pubchem assays: 1829 (Project Summary), 1814 (Primary HTS)]; type: functional
H4 = assay: Luminescence Cell-Based Dose Response HTS to Identify Activators of 5'UTR Stem-Loop Driven Prion Protein mRNA Translation in H4 Neuroglioblastoma Cells. [Related pubchem assays: 1829 (Project Summary), 1814 (Primary HTS)]; type: functional; conditions: Homo sapiens
Cytochrome P450 2C19 = Cytochrome P450 2C19 (Homo sapiens, UniProt P33261); assay: Cytochrome panel assay with activity outcomes. Panel member name: p450-cyp2c19 Compounds with AC50 equal or less than 10 uM are considered active; type: functional
[2] = biological target: T1, Corticotropin-releasing factor receptor 2/Corticotropin-releasing factor-binding protein (Homo sapiens, UniProt P24387+Q13324); assay: Dose Response confirmation of uHTS hits for small molecule antagonists of the CRF-binding protein and CRF-R2 receptor complex.; type: functional; conditions: read-out: IC50_Mean
T1 sequence (Q13324 whole entry): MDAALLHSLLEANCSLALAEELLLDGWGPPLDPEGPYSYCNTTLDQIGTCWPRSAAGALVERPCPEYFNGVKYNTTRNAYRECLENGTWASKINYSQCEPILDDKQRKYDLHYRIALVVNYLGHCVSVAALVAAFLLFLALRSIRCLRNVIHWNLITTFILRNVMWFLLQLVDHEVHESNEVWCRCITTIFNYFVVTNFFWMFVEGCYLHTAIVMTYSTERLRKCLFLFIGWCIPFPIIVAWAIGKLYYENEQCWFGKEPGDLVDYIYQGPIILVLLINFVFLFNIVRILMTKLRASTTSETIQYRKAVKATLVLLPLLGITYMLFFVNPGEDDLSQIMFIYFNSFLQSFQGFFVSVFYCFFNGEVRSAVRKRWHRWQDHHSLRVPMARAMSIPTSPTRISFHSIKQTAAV
T1 sequence (P24387 whole entry): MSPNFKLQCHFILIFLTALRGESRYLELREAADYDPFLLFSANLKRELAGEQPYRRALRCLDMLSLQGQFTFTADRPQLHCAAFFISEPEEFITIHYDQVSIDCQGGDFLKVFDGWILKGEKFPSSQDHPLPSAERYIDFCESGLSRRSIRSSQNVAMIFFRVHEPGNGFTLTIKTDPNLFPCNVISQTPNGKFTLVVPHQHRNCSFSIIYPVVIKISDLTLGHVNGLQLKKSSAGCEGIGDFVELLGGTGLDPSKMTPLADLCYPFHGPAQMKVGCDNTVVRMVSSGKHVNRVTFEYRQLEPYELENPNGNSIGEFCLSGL

[3] = biological target: T1, Corticotropin-releasing factor receptor 2/Corticotropin-releasing factor-binding protein; assay: activators of CRF receptor 2 with binding protein – uHTS hits, confirmation (AID 602473); type: functional; conditions: read-out: EC50_Mean
[4] = biological target: T2, Replicative DNA helicase DnaB (Mycobacterium tuberculosis, UniProt P9WMR3); assay: DnaB intein splicing inhibitors, dose response, biochemical, cell-free fluorescence (AID 449749); type: functional
T2 sequence (P9WMR3 whole entry): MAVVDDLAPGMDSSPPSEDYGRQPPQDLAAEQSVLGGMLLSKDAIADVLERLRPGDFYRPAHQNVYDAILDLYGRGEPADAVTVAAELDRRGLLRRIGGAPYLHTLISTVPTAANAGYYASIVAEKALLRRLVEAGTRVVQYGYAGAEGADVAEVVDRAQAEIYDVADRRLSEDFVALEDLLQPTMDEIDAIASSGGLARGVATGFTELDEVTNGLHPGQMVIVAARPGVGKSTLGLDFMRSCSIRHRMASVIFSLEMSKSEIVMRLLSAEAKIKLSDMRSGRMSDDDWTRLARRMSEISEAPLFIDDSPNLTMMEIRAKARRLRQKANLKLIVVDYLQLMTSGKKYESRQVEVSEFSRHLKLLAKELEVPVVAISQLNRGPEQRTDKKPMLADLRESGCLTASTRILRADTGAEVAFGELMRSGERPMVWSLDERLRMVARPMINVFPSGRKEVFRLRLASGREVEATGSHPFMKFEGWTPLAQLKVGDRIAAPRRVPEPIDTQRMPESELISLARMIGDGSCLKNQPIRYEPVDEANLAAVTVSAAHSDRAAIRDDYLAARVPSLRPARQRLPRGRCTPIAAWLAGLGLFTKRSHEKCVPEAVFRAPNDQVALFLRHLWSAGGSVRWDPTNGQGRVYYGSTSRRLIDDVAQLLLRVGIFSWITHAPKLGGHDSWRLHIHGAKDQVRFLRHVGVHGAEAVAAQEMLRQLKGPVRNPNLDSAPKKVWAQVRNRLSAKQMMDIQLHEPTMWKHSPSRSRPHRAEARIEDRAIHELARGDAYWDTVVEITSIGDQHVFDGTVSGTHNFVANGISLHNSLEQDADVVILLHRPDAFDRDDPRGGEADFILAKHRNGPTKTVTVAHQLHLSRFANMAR

Protein RecA = biological target: T3, Protein RecA (Mycobacterium tuberculosis, UniProt P9WHJ3); assay: Fluorescence Cell-Free Homogeneous Dose Retest to Identify Inhibitors of RecA-Intein Splicing Activity. [Related pubchem assays (depositor defined):AID2097, AID2223, AID489010, AID492950]; type: functional
T3 sequence (P9WHJ3 whole entry): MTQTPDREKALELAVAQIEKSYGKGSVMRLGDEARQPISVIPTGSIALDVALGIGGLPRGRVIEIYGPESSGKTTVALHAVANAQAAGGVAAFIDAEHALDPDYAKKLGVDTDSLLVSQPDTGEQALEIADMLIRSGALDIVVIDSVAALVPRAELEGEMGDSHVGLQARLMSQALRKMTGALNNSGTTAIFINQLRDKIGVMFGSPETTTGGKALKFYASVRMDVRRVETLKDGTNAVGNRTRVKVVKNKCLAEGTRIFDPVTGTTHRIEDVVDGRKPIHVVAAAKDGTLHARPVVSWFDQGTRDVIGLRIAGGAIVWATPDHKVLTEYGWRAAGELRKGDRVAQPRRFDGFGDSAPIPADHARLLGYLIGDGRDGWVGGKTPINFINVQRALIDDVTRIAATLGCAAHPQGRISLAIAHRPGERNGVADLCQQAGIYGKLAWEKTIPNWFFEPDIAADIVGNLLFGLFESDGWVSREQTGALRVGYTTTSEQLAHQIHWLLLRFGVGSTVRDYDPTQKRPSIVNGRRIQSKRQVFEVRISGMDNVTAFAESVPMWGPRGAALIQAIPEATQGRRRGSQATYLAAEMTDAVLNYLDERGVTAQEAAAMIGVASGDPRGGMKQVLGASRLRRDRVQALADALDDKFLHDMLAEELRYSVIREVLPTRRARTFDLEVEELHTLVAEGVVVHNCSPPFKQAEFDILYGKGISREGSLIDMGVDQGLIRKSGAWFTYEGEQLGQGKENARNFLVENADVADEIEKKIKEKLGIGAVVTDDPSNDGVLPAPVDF

Cytochrome P450 3A4 = Cytochrome P450 3A4 (Homo sapiens, UniProt P08684);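 also: CYP3A4 tested as one member of a cytochrome P450 panel screen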
Streptokinase A = biological target: T4, Streptokinase A (Streptococcus pyogenes serotype M1, UniProt P10520); assay: S. pyogenes streptokinase expression inhibitors, potency, dose response, plasminogen activation absorbance, OD405 (AID 1914); type: functional, Streptococcus pyogenes M1 GAS;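 also: secreted streptokinase activity via plasminogen activation per viability signal from cell pellet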
T4 sequence (P10520 whole entry): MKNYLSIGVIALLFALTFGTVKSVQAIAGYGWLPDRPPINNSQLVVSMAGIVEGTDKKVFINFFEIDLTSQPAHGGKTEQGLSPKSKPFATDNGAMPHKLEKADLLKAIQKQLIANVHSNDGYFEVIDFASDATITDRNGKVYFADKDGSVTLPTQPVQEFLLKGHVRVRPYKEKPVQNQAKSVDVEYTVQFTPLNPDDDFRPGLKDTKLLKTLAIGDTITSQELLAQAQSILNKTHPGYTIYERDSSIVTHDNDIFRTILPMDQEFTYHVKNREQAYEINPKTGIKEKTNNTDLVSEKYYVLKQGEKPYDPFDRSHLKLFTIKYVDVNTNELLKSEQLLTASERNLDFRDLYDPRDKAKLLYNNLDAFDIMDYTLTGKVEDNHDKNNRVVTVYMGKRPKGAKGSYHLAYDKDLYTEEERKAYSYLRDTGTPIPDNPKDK

Cytochrome P450 2C9 = Cytochrome P450 2C9 (Homo sapiens, UniProt P11712)
Sequence of Cytochrome P450 2C9 (P11712 whole entry): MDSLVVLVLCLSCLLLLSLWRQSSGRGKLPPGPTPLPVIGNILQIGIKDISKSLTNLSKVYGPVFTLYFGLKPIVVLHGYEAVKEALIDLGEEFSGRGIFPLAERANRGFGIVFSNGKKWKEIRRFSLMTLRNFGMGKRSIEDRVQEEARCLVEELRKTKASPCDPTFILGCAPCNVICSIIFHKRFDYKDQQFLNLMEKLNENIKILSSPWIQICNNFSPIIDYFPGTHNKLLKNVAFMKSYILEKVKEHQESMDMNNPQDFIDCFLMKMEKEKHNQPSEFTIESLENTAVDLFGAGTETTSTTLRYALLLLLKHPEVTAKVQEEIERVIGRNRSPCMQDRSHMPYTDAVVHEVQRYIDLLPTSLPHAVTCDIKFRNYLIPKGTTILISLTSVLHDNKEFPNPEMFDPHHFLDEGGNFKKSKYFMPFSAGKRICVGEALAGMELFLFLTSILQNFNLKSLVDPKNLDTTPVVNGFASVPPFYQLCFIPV

Sequence of Cytochrome P450 2C19 (P33261 whole entry): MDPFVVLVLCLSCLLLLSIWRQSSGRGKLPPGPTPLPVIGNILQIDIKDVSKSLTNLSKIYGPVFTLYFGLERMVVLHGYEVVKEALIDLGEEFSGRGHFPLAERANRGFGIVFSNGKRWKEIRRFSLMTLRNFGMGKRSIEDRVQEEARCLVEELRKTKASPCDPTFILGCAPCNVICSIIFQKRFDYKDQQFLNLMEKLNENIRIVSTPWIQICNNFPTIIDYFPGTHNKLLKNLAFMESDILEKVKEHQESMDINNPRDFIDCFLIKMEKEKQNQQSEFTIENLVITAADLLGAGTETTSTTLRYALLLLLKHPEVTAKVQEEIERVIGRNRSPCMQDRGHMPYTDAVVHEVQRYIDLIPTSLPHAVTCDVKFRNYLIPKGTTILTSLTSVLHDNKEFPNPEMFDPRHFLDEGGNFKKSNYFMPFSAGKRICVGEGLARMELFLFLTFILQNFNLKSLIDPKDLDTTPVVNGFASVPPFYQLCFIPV
Sequence of Cytochrome P450 3A4 (P08684 whole entry): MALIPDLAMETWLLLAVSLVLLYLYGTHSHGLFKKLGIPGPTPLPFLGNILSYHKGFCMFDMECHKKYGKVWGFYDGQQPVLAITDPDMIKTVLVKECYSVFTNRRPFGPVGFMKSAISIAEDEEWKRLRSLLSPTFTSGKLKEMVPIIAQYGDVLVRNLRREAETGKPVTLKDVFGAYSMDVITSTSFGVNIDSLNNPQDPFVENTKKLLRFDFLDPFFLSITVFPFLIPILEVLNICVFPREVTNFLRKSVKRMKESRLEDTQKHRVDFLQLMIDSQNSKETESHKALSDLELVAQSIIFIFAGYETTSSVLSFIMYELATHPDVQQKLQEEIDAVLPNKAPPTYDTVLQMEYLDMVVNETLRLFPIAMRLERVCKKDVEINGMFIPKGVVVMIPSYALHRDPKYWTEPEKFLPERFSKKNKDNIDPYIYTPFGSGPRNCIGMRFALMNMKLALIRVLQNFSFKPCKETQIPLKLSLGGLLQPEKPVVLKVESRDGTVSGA

In the case of CC(=O)N1N=C(c2ccc(C)cc2)OC1c1ccc(C(C)C)cc1 (stereo not given), the EC50 [1] was > 120 µM (not active) and the EC50 (H4) was 6.68 µM (active).

For CC(C)=CCC/C(C)=C/CO/N=C1/C[C@@H](O)[C@@H](O)[C@@H]2[C@@H]3C(=O)N(Cc4ccccc4)C(=O)[C@H]3CC[C@@H]12, the AC50 (Cytochrome P450 2C19) was “inconclusive”.

For O=C(CSc1nnnn1-c1ccccc1)NCCCN1CCCC1=O, the IC50 [2] was > 47.1 µM (inactive) and the EC50 [3] was > 53 µM (inactive).

In the case of O=C(O)C1C2CCC(C2)C1C(=O)NCc1ccco1 (stereo not given), the AC50 (Cytochrome P450 2C19; read-out: AC50) was 7.94 µM (inconclusive).

For CC(C)(C)NC(=O)C(c1ccccn1)N(C(=O)C1CSC(=O)C1)c1cccc(F)c1 (stereo not given), the IC50 [2] was > 47.1 µM (inactive) and the EC50 [3] was > 53 µM (inactive).

In the case of COc1cc2[nH]c(=O)n(CCCCCC(=O)NC3CCCC3)c(=O)c2cc1OC, the IC50 [2] was > 47.1 µM (inactive) and the EC50 [3] was > 53 µM (inactive).

For Cc1cccc(-c2nc(C[S+]([O-])CC(=O)N3CC(C)CC(C)C3)c(C)o2)c1 (stereo not given), the IC50 [2] was > 47.1 µM (inactive) and the EC50 [3] was > 53 µM (inactive).

For CC1=NN(c2ccccc2)C(=O)C1/C=C1\C(=O)NC(=O)N(c2ccc(C)c(C)c2)C1=O (stereo not given), the AC50 [4] was 23.6 µM (active) and the EC50 (Protein RecA) was 3.37 µM (active).

For CS(=O)(=O)c1ccc(C(=O)CN2C(=O)NC3(CCCc4ccccc43)C2=O)cc1 (stereo not given), the IC50 [2] was > 47.1 µM (inactive) and the EC50 [3] was > 53 µM (inactive).

With OC(C#CCN1CCCCCC1)(c1ccccc1)c1cccnc1 (stereo not given) the IC50 [2] was > 47.1 µM (inactive) and the EC50 [3] was > 53 µM (inactive).

With O=c1c(CCc2ccccc2)nc2cnc(Oc3ccccc3)nc2n1C[C@H]1CCCO1 the AC50 (Cytochrome P450 2C19; read-out: AC50) was 39.8 µM (inconclusive) and the AC50 (Cytochrome P450 3A4) was 0.0794 µM (inconclusive).

For O=C1NC(=Nc2ccccn2)SC1Cc1ccc(Cl)cc1 (stereo not given), the EC50 (Streptokinase A) was > 150 µM (not active).

With CC(C)c1nc2ccccn2c1NC1CCCCC1 the AC50 (Cytochrome P450 2C19; read-out: AC50) was 22.4 µM (inconclusive) and the AC50 (Cytochrome P450 2C9) was 39.8 µM (inconclusive).

For Cc1ccc(NC(=O)c2cnc(SCC(=O)NCC3CCCO3)n(C)c2=O)cc1C (stereo not given), the AC50 [4] was 7.83 µM (active) and the EC50 (Protein RecA) was 2.23 µM (active).

For Cc1ccc(/N=c2/sc(C)c(C)n2C)cc1, the EC50 [1] was 13.9 µM (active) and the EC50 (H4) was 108 µM (active).

With N#C/C(=C\c1ccccc1)c1nc2ccc[nH]c-2n1 the AC50 (Cytochrome P450 2C19; read-out: AC50) was 28.2 µM (inconclusive).

In the case of Cc1ccc(N2CC(C(=O)NC3CCC(C)CC3)CC2=O)cc1 (stereo not given), the IC50 [2] was > 47.1 µM (inactive) and the EC50 [3] was > 53 µM (inactive).
